Source: publication PMC4138991, “Building a Better Dynasore: The Dyngo Compounds Potently Inhibit Dynamin and Endocytosis” (Traffic (Copenhagen, Denmark), 2013)
“Also recorded” adds a separate entry of the source.

Key:
Calyx of Held = system: Calyx of Held; design: method as in PMID 18066059; details: 100 μM, 5-min preincubation; cited from earlier work
[1] = target: grb2-stimulated dynamin I (from brain) (Ovis aries, UniProt A0ACI6PDC7); assay: grb2-stimulated (ring) dynamin I GTPase assay; assay type: biochemical, sheep
Chain of grb2-stimulated dynamin I (from brain) (A0ACI6PDC7 entry or part of it): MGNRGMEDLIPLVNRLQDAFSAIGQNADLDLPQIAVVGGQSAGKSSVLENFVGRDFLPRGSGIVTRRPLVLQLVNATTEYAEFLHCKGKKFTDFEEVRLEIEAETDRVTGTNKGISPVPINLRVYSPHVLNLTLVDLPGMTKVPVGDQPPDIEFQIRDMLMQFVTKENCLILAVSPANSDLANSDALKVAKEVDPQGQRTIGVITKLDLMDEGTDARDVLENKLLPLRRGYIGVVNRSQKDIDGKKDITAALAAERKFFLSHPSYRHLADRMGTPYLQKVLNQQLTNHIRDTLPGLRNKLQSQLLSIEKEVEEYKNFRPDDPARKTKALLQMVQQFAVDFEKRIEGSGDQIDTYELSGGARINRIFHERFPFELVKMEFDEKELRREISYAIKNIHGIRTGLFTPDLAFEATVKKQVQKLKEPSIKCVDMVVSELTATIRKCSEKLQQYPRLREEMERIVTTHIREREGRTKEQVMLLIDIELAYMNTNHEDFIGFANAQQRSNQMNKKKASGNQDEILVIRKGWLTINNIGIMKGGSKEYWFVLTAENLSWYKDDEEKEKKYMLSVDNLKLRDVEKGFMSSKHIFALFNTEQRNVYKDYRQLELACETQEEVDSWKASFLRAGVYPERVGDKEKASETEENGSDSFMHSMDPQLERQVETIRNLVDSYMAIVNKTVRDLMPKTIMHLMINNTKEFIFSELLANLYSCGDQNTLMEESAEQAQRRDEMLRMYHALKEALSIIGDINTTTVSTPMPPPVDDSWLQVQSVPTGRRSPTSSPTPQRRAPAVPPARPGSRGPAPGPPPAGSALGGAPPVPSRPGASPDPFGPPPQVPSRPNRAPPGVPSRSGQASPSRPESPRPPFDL
Method: The Malachite Green colorimetric GTPase assay was as described 10. Dynamin I activity was measured in its SAI activity state or was stimulated by three different methods. As each stimulus activates dynamin to different extents, each assay required different dynamin concentrations. First, maximal dynamin activity was stimulated by sonicated PS liposomes 10. Purified dynamin I (10–20 nM, diluted in: 6 mM Tris–HCl, 20 mM NaCl and 0.01% Tween 80, pH 7.4) was incubated in 96‐well plates in GTPase buffer (5 mM Tris–HCl, 10 mM NaCl, 2 mM Mg^2+, 0.05% Tween 80, pH 7.4, 1 µg/mL leupeptin and 0.1 mM PMSF) and GTP 0.3 mM in the presence of test compound for 30 min at 37°C in a final assay volume of 150 μL. Reactions were terminated with 10 μL of 0.5 M ethylenediaminetetraacetic acid (EDTA) pH 7.4 and Malachite Green solution (40 μL: 2% w/v ammonium molybdate tetrahydrate, 0.15% w/v malachite green and 4 M HCl) was added for 5 min. Second, dynamin (20 nM) was stimulated by 10 µg/mL of taxol‐stabilized preformed bovine brain microtubules (Cytoskeleton, Inc) using the same protocol. […] Finally, dynamin (500 nM) SAI activity was measured using high concentrations of dynamin, which promote its cooperative self‐assembly into rings (but not helices) 26. […] After the Vmax and Km values were determined, the data were transformed using the Lineweaver–Burke equation, 1/v = 1/Vmax + (Km/Vmax)(1/[S]).

cultured CGNs [2] = assay: Fluorescent dextran uptake (ADBE) in CGNs; assay type: cell-based, rat; details: 30 μM, 15 min
Method: (§1) Granule neuron cultures were prepared from the cerebella of 7‐day‐old rat pups as previously described 57. In all experiments, neurons were used between 8 and 10 days in vitro.
Uptake of tetramethyrhodamine‐dextran (40 kDa) into nerve terminals of CGNs was monitored as described previously 40. Briefly, cells were left for 10 min in incubation medium and then stimulated with a train of 800 action potentials (80 Hz for 10 seconds) in the presence of tetramethyrhodamine‐dextran (50 μM). Dyngo compound 4a (30 μM) was present for 15 min prior to and including action potential stimulation. Dextran loading was determined by the number of fluorescent puncta in a defined field of view ([…]) using a 20× air objective at 550‐nm excitation and >575‐nm emission. Threshold analysis was performed to discount regions too large to represent individual nerve terminals (diameter greater than […]). The number of dextran puncta per field for each experiment (usually 10 fields of view per experiment) was averaged and subtracted from background fluorescence. To ensure that the density of nerve terminals was consistent between fields and experimental conditions, experiments were performed on the same set of cultures.

[3] = target: dynamin I binding to SH3 domains of grb2, amphiphysin I, endophilin I (Homo sapiens, UniProt Q05193); assay: Pull-down of dynamin I with SH3 domains; details: 10, 40 and 100 µM 4a
Chain of dynamin I binding to SH3 domains of grb2, amphiphysin I, endophilin I (Q05193 whole entry, the tested form may be a part): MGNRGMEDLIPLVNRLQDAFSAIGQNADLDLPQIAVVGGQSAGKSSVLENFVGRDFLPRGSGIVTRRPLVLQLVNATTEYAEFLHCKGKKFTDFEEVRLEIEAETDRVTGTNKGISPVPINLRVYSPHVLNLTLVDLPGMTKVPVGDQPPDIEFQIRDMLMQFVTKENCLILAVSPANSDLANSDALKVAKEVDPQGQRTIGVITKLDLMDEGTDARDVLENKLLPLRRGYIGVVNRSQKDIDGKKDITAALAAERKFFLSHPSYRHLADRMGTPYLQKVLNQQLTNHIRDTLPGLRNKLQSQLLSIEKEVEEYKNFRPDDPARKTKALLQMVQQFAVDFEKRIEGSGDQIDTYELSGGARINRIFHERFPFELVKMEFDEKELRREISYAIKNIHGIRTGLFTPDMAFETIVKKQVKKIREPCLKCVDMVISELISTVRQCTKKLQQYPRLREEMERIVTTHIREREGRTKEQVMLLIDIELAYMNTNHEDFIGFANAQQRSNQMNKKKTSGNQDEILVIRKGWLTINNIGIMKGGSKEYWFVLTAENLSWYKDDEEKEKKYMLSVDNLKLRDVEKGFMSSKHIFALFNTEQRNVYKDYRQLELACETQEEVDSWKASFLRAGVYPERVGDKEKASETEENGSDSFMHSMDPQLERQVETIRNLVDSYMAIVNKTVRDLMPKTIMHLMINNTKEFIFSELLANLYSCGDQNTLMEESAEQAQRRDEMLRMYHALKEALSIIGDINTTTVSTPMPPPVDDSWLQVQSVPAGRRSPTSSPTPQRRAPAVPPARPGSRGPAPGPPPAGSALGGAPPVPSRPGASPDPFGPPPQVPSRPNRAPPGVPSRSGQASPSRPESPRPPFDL
Method: Recombinant human dynamin I was expressed in insect cells (SF21). Cells were lysed and sonicated in 20 mM HEPES buffer with 250 mM NaCl. The lysates were diluted in 20 mM HEPES buffer alone to obtain a final 50 mM NaCl concentration. This diluted lysate was used for pull-downs with 6 µg of GST-amphiphysin1 SH3, GST-endophilin SH3 or GST-grb2 SH3 (all recombinantly expressed in bacteria) immobilised on glutathione sepharose beads. Incubations were done in the presence or absence of 10, 40 and 100 µM 4a for 1 hr at 10°C. The GSH beads were then washed three times with ice cold PBS and the bound proteins were separated on 12% SDS-PAGE gels and visualised using Coomassie Blue.

[4] = target: native sheep brain dynamin I (Ovis aries, UniProt A0ACI6PDC7); assay: PS liposome-stimulated (helical) dynamin I GTPase assay (Malachite Green); assay type: biochemical; details: GTP 50–250 μM, 4a 0.5–6 μM, 17 nM dynamin I, Lineweaver–Burke
Chain of native sheep brain dynamin I (A0ACI6PDC7 entry or part of it): as the sequence (A0ACI6PDC7 entry or part of it) above
Source text: Recombinant dynamin I was used only for the data in Table 2. The dynamin antibodies were from: Dynamin I—in‐house YF2 antibodies, raised in rabbits against two different synthetic peptides: dynamin I 629‐647 ([…]) and dynamin I 765–778 ([…]), used at 1/2000 dilution, as previously described 53; Dynamin II—Santa Cruz (C‐18, sc‐6400, used at 1/1000) and Dynamin III—Santa Cruz (P‐13, sc‐69472, used at 1/500 dilution).
The Malachite Green colorimetric GTPase assay was as described 10. Dynamin I activity was measured in its SAI activity state or was stimulated by three different methods. As each stimulus activates dynamin to different extents, each assay required different dynamin concentrations. First, maximal dynamin activity was stimulated by sonicated PS liposomes 10. […] Finally, dynamin (500 nM) SAI activity was measured using high concentrations of dynamin, which promote its cooperative self‐assembly into rings (but not helices) 26. […] After the Vmax and Km values were determined, the data were transformed using the Lineweaver–Burke equation, 1/v = 1/Vmax + (Km/Vmax)(1/[S]).

cultured CGNs [5] = assay: HRP labeling of endocytosis pathways (electron microscopy) in CGNs; assay type: cell-based, rat; details: 30 μM, 15 min, 80 Hz 10 s
Method: as §1
Granule neurons were processed for electron microscopy as previously described 40. Briefly, cells were transferred to incubation medium for 10 min and subsequently incubated with or without 30 μM 4a for 15 min. Cultures were next stimulated with 800 action potentials (80 Hz) in incubation medium supplemented with HRP (10 mg/mL) in the presence or absence of 4a. Cells were fixed in a 2% solution of glutaraldehyde in phosphate‐buffered saline for 30 min at 37°C directly after stimulation. After washing with 100 mM Tris (pH 7.4) cells were exposed to 0.1% diaminobenzidine and 0.2% H2O2 in 100 mM Tris. On development of color, cells were washed with 100 mM Tris and subsequently stained with 1% osmium tetroxide for 30 min. After washing, cells were post‐stained with 2% uranyl acetate for 15 min, then dehydrated using ethanol series and polypropylene oxide and embedded using Durcupan. Samples were sectioned, mounted on grids and viewed using a FEI Tecnai 12 transmission electron microscope. Intracellular structures that were less than 100 nm in diameter were arbitrarily designated to be synaptic vesicles, whereas larger structures were designated to be endosomes.

Row | SMILES | SVE at the Calyx of Held (Calyx of Held) | block of grb2-SH3 stimulated ring dynamin activity ([1]; presence of Tween-80) | fold reduced activity against grb2-stimulated ring dynamin versus PS-stimulated helical dynamin ([1]; without Tween-80) | maximum block of ADBE measured by dextran uptake (cultured CGNs [2]) | effect on dynamin I binding to SH3 domains [3] | kinetics of inhibition with respect to GTP [4] | number of HRP-labeled endosomes (ADBE) (cultured CGNs [5]) | number of HRP-labeled synaptic vesicles (neuronal CME) (cultured CGNs [5])
1 | O=C(N/N=C/c1ccc(O)c(O)c1)c1cc2ccccc2cc1O [Dynasore, (E)-N'-(3,4-Dihydroxybenzylidene)-3-hydroxy-2-naphthohydrazide] | inhibit SVE | did not block | threefold less potent |  |  |  |  | 
2 | O=C(N/N=C/c1cc(O)c(O)cc1O)c1cc2ccccc2cc1O [4a, (E)-3-Hydroxy-N'-(2,4,5-trihydroxybenzylidene) -2-naphthohydrazide] |  |  |  | > 80% | did not disrupt the binding; also recorded: no effect | non‐competitive inhibitor | caused a decrease in the number | significant reduction in the number of labeled synaptic vesicles
